Measurements reported in patent US20250353831A1, “NOVEL HETEROBICYCLIC COMPOUND FOR INHIBITING YAP-TEAD INTERACTION AND PHARMACEUTICAL COMPOSITION COMPRISING SAME” (priority 2022, published 2025).

Experiments:
NCI-H226 cells = assay: Cell growth inhibition test (SRB) in NCI-H226 cells; assay type: cell-based; conditions: Homo sapiens, 144 h, NCI-H226 NF2 gene-deficient mesothelioma cancer cell line, 6 days
Experimental: The ability of the synthetic compounds to inhibit the growth of NCI-H226 cells was identified. NCI-H226, which is an NF2 gene-deficient mesothelioma cancer cell line, was cultured in a RPMI 1640 medium supplemented with 10% FBS and 1% Penicillin/Streptomycin. The cultured cells were aliquoted into a 96-well plate at a density of 0.7×10^3 cells/100 μl and cultured for 24 hours, and then 100 μl of a test compound diluted to 2× concentration was mixed with each well and cultured for 6 days. SRB test method was used to measure cell growth inhibition, and a 50% inhibitory concentration (GI50) on cell growth by the compound was calculated by using GraphPad Prism 9.
A GI50value less than 100 nM was expressed as A and a GI50 value not less than 100 nM was expressed as B.

TEAD = TEAD reporter activity inhibition test (luciferase reporter in MCF7 cell line); assay type: cell-based; conditions: Homo sapiens; MCF7 TEAD (GTIIC) firefly luciferase reporter cell line, 24 hours, ONE-Glo luminescence; read-out: IC50 on TEAD transcription activity
Experimental: The ability of the synthetic compounds to inhibit transcription of a target gene by TEAD was measured. This evaluation method was a method of measuring transcriptional activity of TEAD by measuring luminescence intensity of luciferase expressed in the case where TEAD binds to a target gene and activates transcription thereof, by using MCF7 cell line (BPS Bioscienc, Inc., USA) constructed by introducing firefly luciferase reporter gene into GTIIC (5′-ACATTCCA-3′), which is a specific binding structure of TEAD. The cell line was cultured in a MEM medium supplemented with 10% FBS, 1% Penicillin/Streptomycin, 1% non-essential amino acids, 10 μg/ml insulin, and 400 μg/ml Geneticin. In the test of inhibiting the TEAD reporter activity, Geneticin was excluded. The cells were aliquoted into a white 96-well plate at a density of 4×10^4 cells/100 μl and cultured for 6 hours. 50 μl of the test compound diluted to 3× concentration was mixed with each well. After culturing the cell line for 24 hours, signals of luciferase were measured by luminescence according to manufacturer's protocols by using ONE-Glo luciferase assay system (Promega, E6120). A 50% inhibitory concentration (IC50) on TEAD transcription activity was calculated by using GraphPad Prism 9.
An IC50 value less than 100 nM was expressed as A, an IC50 value not less than 100 nM but less than 500 nM was expressed as B, and an IC50 value not less than 500 nM was expressed as C.

**Q.** `C=CC(=O)Nc1ccc2c(c1)c(-c1ccccc1F)cn2-c1ccc(C(F)(F)F)cc1` [Synthetic compound 5, N-(3-(2-fluorophenyl)-1-(4-(trifluoromethyl)phenyl)-1H-indol-5-yl)acrylamide] was tested. Which GI50 (NCI-H226 cells) did it give?
**A.** < 100 nM

**Q.** What about the IC50 (TEAD) of the same molecule?
**A.** < 100 nM

**Q.** Which IC50 (TEAD) does the source give for `C=C(F)C(=O)Nc1ccc2c(c1)c(-c1cn(C)cn1)cn2-c1ccc(C(F)(F)F)cc1` [Synthetic compound 6, 2-fluoro-N-(3-(1-methyl-1H-imidazol-4-yl)-1-(4-(trifluoromethyl)phenyl)-1H-indol-5-yl) acrylamide] here?
**A.** 100 to 500 nM

**Q.** How did the GI50 (NCI-H226 cells) turn out when `C=CC(=O)Nc1ccc2c(c1)c(-c1ccco1)cn2-c1ccc(C(F)(F)F)cc1` [Synthetic compound 3, N-(3-(furan-2-yl)-1-(4-(trifluoromethyl)phenyl)-1H-indol-5-yl)acrylamide] was run?
**A.** < 100 nM

**Q.** And the IC50 (TEAD)?
**A.** < 100 nM

**Q.** How did the GI50 (NCI-H226 cells) turn out when `C=CC(=O)Nc1cnc2c(c1)c(-c1cn(C3CC3)cn1)cn2-c1ccc(C(F)(F)F)cc1` [Synthetic compound 8, N-(3-(1-cyclopropyl-1H-imidazol-4-yl)-1-(4-(trifluoromethyl)phenyl)-1H-pyrrolo[2,3-b]pyridin-5-yl)acrylamide] was run?
**A.** < 100 nM

**Q.** And the IC50 (TEAD)?
**A.** < 100 nM

**Q.** With `C=CC(=O)Nc1ccc2c(c1)c(-c1cn(C3CC3)cn1)cn2-c1ccc(C(F)(F)F)cc1` [Synthetic compound 2, N-(3-(1-cyclopropyl-1H-imidazol-4-yl)-1-(4-(trifluoromethyl)phenyl)-1H-indol-5-yl) acrylamide] as the molecule, how does the GI50 (NCI-H226 cells) read?
**A.** < 100 nM

**Q.** What about the IC50 (TEAD) of the same molecule?
**A.** < 100 nM

**Q.** How did the GI50 (NCI-H226 cells) turn out when `C=CC(=O)Nc1ccc2c(c1)c(-c1cn(CCOC)cn1)cn2-c1ccc(C(F)(F)F)cc1` [Synthetic compound 7, N-(3-(1-(2-methoxyethyl)-1H-imidazol-4-yl)-1-(4-(trifluoromethyl)phenyl)-1H-indol-5-yl)acrylamide] was run?
**A.** < 100 nM

**Q.** And the IC50 (TEAD)?
**A.** < 100 nM

**Q.** What does the source list for `C=CC(=O)Nc1ccc2c(c1)c(-c1cn(C)cn1)cn2-c1ccc(C(F)(F)F)cc1` [Synthetic compound 9, N-(3-(1-methyl-1H-imidazol-4-yl)-1-(4-(trifluoromethyl)phenyl)-1pyrrolo[2,3-b]pyridin-5-yl)acrylamide]?
**A.** GI50 (NCI-H226 cells): < 100 nM; IC50 (TEAD): < 100 nM

**Q.** What does the source list for `C=CC(=O)Nc1ccc2c(c1)c(-c1cn(C3CCC3)cn1)cn2-c1ccc(C(F)(F)F)cc1` [Synthetic compound 4, N-(3-(1-cyclobutyl-1H-imidazol-4-yl)-1-(4-(trifluoromethyl)phenyl)-1H-indol-5-yl)acrylamide]?
**A.** GI50 (NCI-H226 cells): < 100 nM; IC50 (TEAD): < 100 nM

**Q.** `C=CC(=O)Nc1cc2c(-c3cn(C)cn3)cn(-c3ccc(C(F)(F)F)cc3)c2cc1Cl` [Synthetic compound 10, N-(6-chloro-3-(1-methyl-1H-imidazol-4-yl)-1-(4-(trifluoromethyl)phenyl)-1H-indol-5-yl)acrylamide] was tested. Which IC50 (TEAD) did it give?
**A.** 100 to 500 nM
